The text below walks through data of patent publication US11608324B2, “Solid forms of fasoracetam” (The Children's Hospital of Philadelphia, priority 2018, dated 2023).

The nature of data set [1]: Hygroscopicity (statement). Format: physicochemical.
The nature of data set [2]: Thermogravimetric analysis (TGA), thermal stability. Format: physicochemical. The protocol: TGA measurements were carried out on a METTLER TOLEDO TGA/SDTA 851e. Samples were placed in open aluminum oxide crucible. All experiments were performed under nitrogen flow.
A TGA plot can be found at FIG. 6. The sample was equilibrated at 30.0° C. for five minutes prior to ramping. A heating rate of 5° C. per minute was used from 30.0° C. to 350.0° C. No significant weight loss was observed until temperatures greater than 180° C. were recorded.

Data set [3] in a line: Solubility curve in ethyl acetate (Crystal16). Particulars: FIG. 10. Type of data set: physicochemical. An excerpt:
FIG. 7 is the x-ray powder diffraction of the R-fasoracetam monohydrate Form I starting material used in this Example 1, and FIG. 8 is the corresponding DSC thermogram of that starting material. A solubility curve was constructed for the cocrystal in ethyl acetate with the results plotted in FIG. 10 (from the data collected in Example 1) using a Crystal16 device from Technobis Crystallization Systems. The samples were created from the cocrystal without adding any additional water or other constituents. The samples were heated at a rate of 1°/15 minutes.

For data set [4] the following is noted: subjects having a genetic alteration in an mGluR network gene; cited from earlier work.
For data set [5], the system named is metabotropic glutamate receptor (mGluR), all classes. Particulars: Hirouchi M, et al. (2000); WO2017/044491; cited from earlier work.

Each structure is given as a SMILES string.

On to `O=C1CC[C@H](C(=O)N2CCCCC2)N1` [R-fasoracetam anhydrate], for which the hygroscopicity entry in data set [1] is listed as “hygroscopic”.
Turning to `Nc1ccc(C(=O)O)cc1.O=C1CC[C@H](C(=O)N2CCCCC2)N1` [R-fasoracetam:PABA cocrystal], the “thermal stability by TGA, stable up to” value in data set [2] (TGA, FIG. 6) is “about 200 °C”. For the same molecule, the “temperature until which no significant weight loss was observed (TGA)” value in data set [2] (heating rate 5° C. per minute from 30.0° C. to 350.0° C.) was “greater than 180 °C”. For the same molecule, the “solubility as compared with R-fasoracetam monohydrate Form I” value in data set [3] was “approximately three-fold lower”.
For the molecule `O=C1CC[C@H](C(=O)N2CCCCC2)N1` [fasoracetam], the “treatment outcome in ADHD” value in data set [4] is listed as “successfully treated”. Further, in data set [5], the “activity against mGluRs in vitro” value is “nonselective activator against all classes of mGluRs”.
